Assay results taken from a melting point compilation (Tetko et al.; mined from patent text by program, amines drawn as free bases though some values may be those of a salt).

SMILES | melting point [°C]
O=C(NCc1ccccn1)Nc1cc(N2CC(c3cccs3)OC2=O)ccn1 (stereo not given) | 187 to 188
CC(C)C(=O)NC(=O)N1C(=O)Cc2cc(Cl)ccc21 | 139 to 141
COc1ccc(COc2cncc3c2C(=O)c2c(F)ccc(Cl)c2C3=O)cc1 | 155 to 157
CC1(C)CCC(C)(C)c2cc(-c3cc(-c4ccc(C(=O)O)cc4)ccc3OCCCCCCO)ccc21 | 200 to 201
CCN1c2ncc(COc3ccc(F)cc3)cc2C(=O)N(C)c2ccc(Cl)nc21 | 143 to 144
Cc1nc(NC(=O)c2cnn3c(C(F)F)cc(-c4ccc(C(F)(F)F)cc4)nc23)sc1S(N)(=O)=O | 284
CCCCCCCC(=O)N(C)Cc1cc(-c2ccc(C=CC(=O)O)cc2)cs1 | 175
CCN1CCC(N2C(=O)c3ccc([N+](=O)[O-])cc3C2=O)CC1 | 153 to 155
COc1ccc(C(=O)CN2CCc3cc(OCc4ccccc4)c(OC)cc3C2)cc1OC | 126 to 127
O=C(O)CCNC(=O)c1cccc(NC(=O)c2csc(NC(=O)NCc3ccccc3)n2)c1 | 157
CCCCOC(=O)COc1ccc(C(=O)N(C)c2ccccc2Sc2ccccc2-c2nnn[nH]2)cc1 | 148 to 150
Nc1nc2c(N)cc(OC(F)(F)F)cc2s1 | 206
CCCc1nn(C)c2c(=S)[nH]c(-c3ccccc3OCC)nc12 | 156 to 158
COc1ccc2c(c1)c(C)cc(=O)n2-c1ccc(Cl)cc1 | 234 to 235
COc1ccc(C(=O)N2c3ccccc3C(n3c4ccccc4c4ccccc43)CC2CCCCC(=O)O)cc1OC (stereo not given) | 226 to 228
CCN(CC)Cc1ccc2c(c1)ncn2-c1cccc(-c2nccs2)c1 | 152
O=C1NC(=O)C(c2ccc(-c3ccccc3)s2)O1 (stereo not given) | 233 to 235
O=C1OC(=O)c2cscc21 | 147 to 149
CCCCC1CCCC2=C1C(=O)c1cc(C)c(C)cc1C2=O (stereo not given) | 88 to 90
Cn1c(COc2ccc(CC3SC(=O)NC3=O)cc2)nc2ccc(Oc3cccc(NC(=O)Nc4ccc(C(F)(F)F)cc4)c3)cc21 (stereo not given) | 192 to 194
O=C(O)c1cccc(Nc2nc(Oc3ccccc3)nc(Oc3ccccc3Cl)n2)c1 | 250 to 252
COC(=O)c1ccc2ccc(OC(=S)N(C)C)cc2c1 | 124 to 126
O=C1CCN(c2ccc(CNC(=O)c3cccnc3Oc3ccc(F)cc3)cc2)CC1 | 138 to 139
Cc1ccc(S(=O)(=O)Nc2cccc3cc(C(=O)O)[nH]c23)cc1 | 268 to 269
Cc1c[nH]c(=O)nc1-n1cncn1 | 258 to 264

SMILES | melting point [°C]
CCOC(OCC)C1Cc2c(Br)ccc(OC)c2C1=O (stereo not given) | 76 to 78
Oc1cc(O)c2c(-c3cc(F)cc(F)c3)coc2c1 | 149 to 151
N#CCOC(=O)c1ccc([N+](=O)[O-])cc1 | 80 to 82
NC(=S)Cc1cccc(Oc2ccccc2)c1O | 70
OCc1nccc(N2CCOCC2)n1 | 76 to 78
CC(=O)SCC(Cc1ccccc1C)C(=O)O (stereo not given) | 63 to 70
COc1ccc(C2=NN(C3CCN(S(=O)(=O)c4cccc(C)c4)CC3)C(=O)C(C)(C)C2)cc1OC | 150 to 152
N#Cc1c(N2CCCCC2)cc(-c2cccs2)c2c1-c1ccccc1C2 | 152 to 154
CO[C@@H]1CNCC[C@@H]1NC(=O)c1cc(Cl)c(N)c2c1OC(C)(C)C2 (relative stereo) | 179
CCOC(=O)c1c(-c2ccc(C)cc2)nc2ccccn12 | 88
C#Cc1cccc(Nc2ncnc3ccc(S(=O)(=O)n4ccc(C=CC(=O)NOC5CCCCO5)c4)cc23)c1 (stereo not given) | 152 to 155
O=C(O)c1cc(OCC(F)(F)F)ccc1OCC(F)(F)F | 99 to 101
CC(=O)Nc1ccc2cccc(Oc3cc(N4CCN([C@H](C)c5ccc(F)cc5)CC4)ncn3)c2n1 | 134
O=C(NO)c1ccc(I)cc1O | 195 to 196
O=CN(Cc1cccs1)C1(c2ccc(Cl)cc2)CCC1 | 114 to 119
COc1nc(OC)c2cc(CBr)ccc2n1 | 138 to 143
COC(=O)N1CCC(n2c(=O)[nH]c3cc(Cl)ccc32)C(C)C1 (stereo not given) | 196
CCn1ncc2c1ncc1c(OCCC(C)C)nc3ncnn3c12 | 140 to 142
CCCCN(CCCC)S(=O)(=O)c1cc(C(=O)CCl)ccc1Cl | 71
CCOc1cc(O)c2cc(C(C)=O)ccc2n1 | 210 to 219
CC(C)(C)c1ccc(-c2cccc(-c3ccccc3)c2CC(=O)NC(=N)N)cc1 | 171 to 174
COC1CC2(C)C(CCC3C4CCC(C(C)=O)C4(C)CC(=O)C32)CC1O (stereo not given) | 163 to 164
CCCCc1nc2c(n1Cc1ccc(-c3ccccc3S(N)(=O)=O)cc1)C(=NO)CCS2 | > 200
O=C(NCCSCc1cccc(F)c1)c1c(Cl)cccc1Cl | 70 to 72
CNc1nc(C)c(-c2nc3ccccc3c(=O)n2-c2cccc(C)c2)s1 | > 275

SMILES | melting point [°C]
O=C1Nc2cc(Cl)ccc2Oc2ccccc21 | 250 to 255
CC(C)(C)c1cc(C2SC(CC(=O)N3CCCC3)C(=O)N2CCCCl)cc(C(C)(C)C)c1O (stereo not given) | 193 to 194
Cc1oc(-c2ccccc2)nc1CCOc1ccc(CC2SC(=O)NC2=O)c2sccc12 (stereo not given) | 196 to 197
COC(=O)[C@H](/C=C/[C@H](Cc1ccccc1)NC(=O)OC(C)(C)C)Cc1ccccc1 | 84 to 85
O=C(CS(=O)CCNC(=O)c1ccco1)NCCCOc1cccc(CN2CCCCC2)c1 (stereo not given) | 101 to 102
O=C(O)/C=C/c1ccc(-c2nc3c(=O)n(Cc4ccccc4)c(=O)n(Cc4ccccc4)c3[nH]2)cc1 | > 300
Cc1nc(N2CCN(CC3CC3)C2=O)sc1C(=O)NCc1cccnn1 | 187 to 189
O=C(NCCCc1ccccc1)c1ccccc1NCc1ccncc1 | 117
CC1CC(C)(C)C(O)(CO)C1Cc1ccc(Cl)cc1 (stereo not given) | 93 to 94
COc1ccc(S(=O)(=O)N2C(=O)C(c3ccccc3O)(N3CCC[C@H]3C(=O)N(C)C)c3cc(Cl)ccc32)c(OC)c1 (stereo not given in full) | 143
CCOC(=O)C1=C(N)OC(C)=C(C(=O)OC(C)C)C1c1cccc([N+](=O)[O-])c1 (stereo not given) | 135
CCCCCCCCCCOc1ccccc1C(N)=O | 58 to 59
Cn1nc2cccc(Cl)c2c1S(N)(=O)=O | 173 to 175
Cc1cccc2c1N(CC(=O)N1CC3CCC(CC3)C1)C(=O)C(NC(=O)Nc1cccc(Cc3nnn[nH]3)c1)N=C2c1ccccc1F (stereo not given) | 154 to 168
O=C(C1CC1)N1CCC2(CC1)Cc1ccccc1O2 | 111 to 113
Clc1cc2c(cc1Cl)CC=C2 | 76
C=C(C1=C(CCC(=O)O)C(=O)CC1=O)c1ccccc1 | 116 to 117
CC(=O)n1c(Br)cc(-c2ccc(F)cc2)c1-c1ccc(S(C)(=O)=O)cc1 | 121 to 125
O=C(O)c1cc2c(s1)CCC2=O | 195 to 196
Cc1nnc(C(F)(F)F)n1-c1ccccc1 | 118
COc1cc(Br)ccc1-c1ccc(Br)cc1[N+](=O)[O-] | 127 to 129
CC(C)C(=O)Oc1cccc2c1C(=O)c1c(O)cccc1C2C(=O)C1CCCCC1 (stereo not given) | 146
Cc1[nH]c(-c2ccccc2)c(NC(C)C)c1C(=O)c1ccccc1 | 132 to 136
CC(C)NC(=O)c1ccc(-c2cnc3[nH]c(=O)n(CC4CCCCC4)c3n2)cc1 | 264 to 268
N#Cc1cc(/C=C/C(c2cc(Cl)c(Cl)c(Cl)c2)C(F)(F)F)ccc1-n1cnc(N)n1 (stereo not given) | 72 to 75

SMILES | melting point [°C]
C=CC(C)(C)OC(=O)c1c(C)nc2c(cnn2CCCCC)c1N | 77.7 to 78.5
CN1C(=O)C(c2cccc(-c3cncnc3)c2)(c2cc(C#N)n(C)c2)N=C1N (stereo not given) | 214 to 225
CP(=O)(O)CCC(=O)O | 95
CC1(CC(=O)O)CCCCCC1=O (stereo not given) | 43 to 45
Cc1ccc(S(=O)(=O)C(C)(C)C(=O)C(C)C)cc1 | 76 to 79
CC(=O)c1ccc(Nc2cccc(-c3ccccn3)c2)c(N)c1 | 145 to 146
COc1cnc(CSc2nc3cc4c(cc3[nH]2)OC(F)(F)O4)cc1OC | 189 to 191
CSc1ccc(-c2nc(S)[nH]c2-c2ccc(SC)cc2)cc1 | 280
CC12CCC(C(=Cc3ccc(CI)cc3)C1=O)C2(C)C (stereo not given) | 108
Cc1c[nH]c(Cc2ccc(O)cc2)n1 | 193 to 194
CCCCc1cn(-c2cccn2CC)c(=O)n1Cc1ccc(-c2ccccc2-c2nnn[nH]2)nc1 | 174 to 175
CNc1nc(Cl)cc(NS(=O)(=O)c2ccc(Cl)cc2)n1 | 196 to 198
CCOC(=O)CCc1c(OCc2ccc(OCc3nc(-c4ccccc4)oc3C)cc2)ccc2ccccc12 | 86 to 87
COc1ccc(NC(=O)c2cc([N+](=O)[O-])ccc2NC(=O)c2ccc(C(C)(C)C)cc2)cc1 | 210 to 211
Cc1cccc(NC(=O)CC23CC4CC(CC(C4)C2)C3)c1C | 170
NC(=O)c1ccc(N)c(C(N)=O)c1 | 177 to 198
COc1ccc2c3ccc(OC)cc3n(CCNC(=O)CS(C)(=O)=O)c2c1 | 175 to 177
Brc1ccc(-c2ccc3ccccc3c2)cc1 | 121 to 123
Cc1ccc(S(=O)(=O)Oc2cccc(NC(=O)NS(=O)(=O)c3ccccc3)c2)cc1 | 162 to 170
CSc1cc(NCc2nc3ccccc3o2)c(=O)[nH]c1C | 180 to 181
FC(F)(F)c1ccc(CC[C@H]2CN(Cc3ccccc3)CCN2Cc2ccccc2)cc1 | 71 to 75
Nc1cccc(C=Cc2ccc3ccccc3n2)c1 | 158 to 160
CCCc1c(OCCCOc2ccccc2)ccc2c1OC(CCC(=O)O)(CCC(=O)O)CC2O (stereo not given) | 132
COc1cc(COc2nn(-c3ccccc3)cc2/C=C/C#N)ccc1OCc1nc(-c2ccccc2)oc1C | 184 to 185
COc1cc(COc2cc(CCC(=O)O)n(-c3ccccc3)n2)ccc1OCc1nc(-c2ccccc2)oc1C | 157 to 158
